Assay: GSSG content after autoclaving at F0=8
Type: physicochemical
Settings: 0.4% histidine in reconstituted BSS PLUS, autoclaved
Source text: The composition of reconstituted BSS PLUS® Sterile Intraocular Irrigating Solution is shown below in Table 1. The reconstituted product was used as a control solution. A sample of the reconstituted product was then spiked with 0.4% histidine to form the experimental solution. The control solution and the experimental solution were then each divided into two replicates each. The pH of one control and one experimental replicate was then adjusted to pH 6.8 and the pH of the other replicate was adjusted to pH 7.4. Both sets of the solutions were then autoclaved at F0=8. After autoclaving, GSSG contents in all the solutions were determined and the results are tabulated in Table 2 as percent GSSG remaining of the label claim in BSS PLUS® Sterile Intraocular Irrigating Solution.
All of the above solutions were autoclaved in the same cycle. However, in this particular experiment, the sterilizer used was not capable of finely regulating F0 and thus significant degradation of GSSG occurred.

- Effect on GSSG stability in solution: stabilizes GSSG in solution
Compound: N[C@@H](Cc1c[nH]cn1)C(=O)O [histidine]

Source: patent publication US20090264375A1, “INTRAOCULAR IRRIGATING SOLUTIONS AND METHODS FOR TREATING CORNEAL EDEMA” (ALCON RESEARCH, LTD., priority 2007, published 2009)
